Square brackets hold non-standard residues; d marks the D form. Peptide text beside a SMILES is read from it. * marks the point of attachment. Nle = CCCC[C@H](N)C(=O)O; Cbz = O=C(OCc1ccccc1)*
What was measured:
[1] = system: MDA-MB231 breast cancer cells; assay: Cytotoxicity and growth assay in MDA-MB231 breast cancer cells (SRB, TCA-precipitated protein); assay type: cell-based, human
Experimental: An invasive, estrogen-independent breast cancer cell line that spontaneously expresses high levels of Notch-1 and -4, MDA-MB231, and normal human breast cells were used to investigate whether inhibition of Notch activation or expression affects the biological behavior of breast cancer cells. Human Mammary Epithelial Cells (HMEC) were purchased from Clonetics and cultured in mammary epithelial cell basal medium (MEBM) supplemented with 52 μg/ml Bovine Pituitary Extract […], […] human recombinant Epidermal Growth Factor (hEGF), 5 μg/ml insulin, 0.5 μg/ml Hydrocortisone, 50 μg/ml Gentamicin and 50 μg/ml Amphotericin-B. MDA-MB231 (ATCC, Rockville, Md.) were cultured in DMEM medium with 10% FBS. Notch expression in HMEC and MDA-MB231 cells was silenced using highly specific RNAi. Double-stranded synthetic 21-mer RNA oligonucleotides (siRNAs) were purchased from Dharmacon (Lafayette, Colo.). […] Sequence specificity was determined by BLAST searches which determined the uniqueness of the sequences. Transfection of siRNAs was performed using Oligofectamine (Invitrogen) as recommended by the siRNA manufacturer (Dharmacon). Transfection efficiency was optimized and followed on parallel wells using DNA double stranded oligos of identical sequence to the siRNAs, labeled with biotin on one strand. Transfected cells were identified by Streptavidin-horseradish peroxidase staining (Vectastain) and counted. Transfection efficiencies around 80% were routinely obtained.
Cytotoxicity and growth of transfected cells were estimated by a standard assay used for cancer drug screening, through the total amount of TCA-precipitated cell proteins after drug treatment (Likhitwitayawuid, K et al., 1993, J Nat Prod 56:30-38): 200 μl of cell suspension (10^5 cells/ml) were added to each well in a 96-well plate. After incubation at, 37° C., in 5% CO2 (30 minutes to 72 hours depending on the time course chosen), 50 μl 50% trichloroacetic acid was added to each well. After incubation at 4° C. for 1 hour, precipitates were washed with water 4-5 times and air dried overnight. One hundred μl of SRB solution (0.4% sulforhodamine B in 1% acetic acid, filtered before use) was added to each well for 30 minutes. Wells were washed with 1% acetic acid 4-5 times and air dried. Two hundred μl 10 mM Tris base was added to each well. Plates were shaken for 5-10 minutes and OD at 490 nm (OD490) was recorded via ELISA reader. To assay matrix invasion, 300 μl of cell suspension (10^6 cells/mL in serum-free medium) were added to invasion inserts (BioCoat Matrigel Invasion Chambers, Becton Dickinson, Bedford, Mass.) and incubated for 22 hours at 37° C., 5% CO2. […] After removal of the non-invading cells from the interior of the inserts, stained invading cells were lysed in 10% acetic acid and OD595 was determined. […]

[2] = system: CaSki human cervical cancer cells; assay: Apoptosis of CaSki cells (Annexin V flow cytometry, caspase 3 Western blot); assay type: cell-based
Experimental: For the apoptosis measurement assay, the transformed CaSki human cervical cancer cells were treated with DMSO, or 25 μM, 50 μM or 100 μM cisplatin for 24 hours. After cisplatin treatment, the cells were collected and stained with fluorescein-conjugated annexin V and propidium iodide, using the APO TARGET Annexin-V FITC Apoptosis Kit (BioSource International, Inc., Camarillo, Calif.) according to the manufacturer's instructions. After the staining, the cells were sorted by flow cytometry with a FACScan instrument (Becton-Dickinson), Annexin-V positive stained cells were counted as apoptotic cells. Cells that were propidium iodide positive but annexin V negative were not counted as apoptotic cells.
To determine whether z-Leu-Leu-Nle-CHO induces cell death via apoptosis, CaSki cells were treated with various concentrations of z-Leu-Leu-Nle-CHO for 18 h and then either stained with Annexin-V-FITC as described above, or subject to Western blot analysis using antibody to both the pro-enzyme and active form of caspase-3 (Santa Cruz Biotechnology, Santa Cruz, Calif.) as described above.

Row | Molecule | proliferation ([1]; MDA-MB231, siRNA transfection) | effect on cisplatin-induced apoptosis ([2]; cisplatin 25, 50 or 100 μM for 24 hours) | IC50 ([1]; Homo sapiens, MDA-MB-231, MDA-MB231 (p53-mutant, ERα-negative), 48 h, read-out: IC50, cell growth inhibition) | caspase 3 activation ([2]; 18 h) | mode of cell death (Annexin V flow cytometry) ([2]; 18 h)
1 | 5′-AAGTGTCTGAGGCCAGCAAGA-3′ [Notch-1 siRNA] | inhibits proliferation of MDA-MB231 breast cancer cells | significantly enhances cisplatin-induced apoptosis | – | – | –
2 | CCCC[C@@H](C=O)NC(=O)[C@H](CC(C)C)NC(=O)[C@H](CC(C)C)NC(=O)OCc1ccccc1 [z-Leu-Leu-Nle-CHO, N-benzyloxycarbonyl-leucyl-leucyl-norleucinal] (Cbz-Leu-Leu-[Nle]-aldehyde) | – | – | 1.3 µM | dose-dependent caspase 3 activation | primarily apoptotic

Reference: patent US20080220416A1, “Compositions for Inhibiting Cell Growth and Inducing Apoptosis in Cancer Cells and Methods of Use Thereof” (THE BOARD OF TRUSTEES OF THE UNIVERSITY OF ILLINOI, priority 2004, published 2008)
